Tests used:
[1] = tested on: Meth A fibrosarcoma; experiment: Meth A fibrosarcoma tumor volume in mice (Test Example 2); format: in vivo, BALB/c mice; details: Test (2): start tumor volume 160-180 mm³; irsogladine maleate 10 mg/kg or 5-fluorouracil 30 mg/kg orally; Fig. 2
Method: • (1) The homologus tumor Meth A fibrosarcoma subcultured (ascites type) in BALB/c mice, 5 x 10^5 cells, was transplanted subcutaneously at the flank of 6-week-old male BALB/c mice. Mice having a tumor volume of 70-100 mm³ were selected and divided into groups of 9. Oral single daily administration of the test compound was started and the body weight and tumor volume were serially determined. The volume was determined using the same calculation formula as shown in Test Example 1. The compound of the invention irsogladine maleate, 10 mg/kg, suspended in 0.5% methylcellulose maleate and 5-fluorouracil, 15 mg/kg, dissolved in 0.5% methylcellulose solution were respectively administered orally. The control group received 0.5% methylcellulose solution orally. […] The effect of the com pound of this invention as an anticancer agent is, thus, clear. • (2) As in the above test, mice having a tumor volume of 160-180 mm³ were selected and subjected to the same test as above. The compound of this invention irsogladine maleate, 10 mg/kg, 5-flurorouracil, 30 mg/kg, or as a combination therapy, irsogladine maleate, 10 mg/kg, plus 5-fluorouracil, 30 mg/kg, were administered orally. The control group received the same control material as in the above test orally. […] The anticancer adjuvant activity of the compound of this invention to 5-FU is clear.
The open circle stands for control, the open triangle for 5-FU and the closed circle for the compound of the invention. The tumor volume (mm³) is plotted on the vertical axis and the number of days after drug administration on the horizontal axis.
The open circle stands for control, the open triangle for F-5U, the closed circle for the compound of the invention, the open square for the combination therapy. The tumor volume (mm³) is plotted on the vertical axis and the number of days after drug administration on the horizontal axis.

[2] = tested on: WiDr (human colon cancer); experiment: Tumor growth inhibition, WiDr implant in nude mice (Test Example 1); format: in vivo, BALB/c nude mice; details: implant volume on day 18 after transplantation divided by volume at transplantation; irsogladine maleate 10 mg/kg orally once daily from day 14; cyclophosphamide 150 mg/kg intraperitoneally once on day 14; groups of 10
Method: WiDr (human colon cancer) cells subcultured in BALB/c nude mice were dissected to prepare cubes, about 2 mm³ each. These cubes were transplanted subaxillarily into separate BALB/c nude mice using a transplantation needle. The animals were divided into groups of 10 individuals on day 10 after transplantation and the body weight and the diameter of the implant were serially determined. As the compound of this invention, irsogladine maleate, 10 mg/kg, was suspended in 0.5% methylcellulose solution and administered orally once daily beginning day 14 after transplantation. Cyclophosphamide, 150 mg/kg, was dissolved in PBS and administered intraperitoneally once on day 14 after transplantation. The control group received 0.5% methylcellulose solution orally once daily beginning day 14 after transplantation.
The volume of the implant on day 18 after transplantation was divided by the volume at trans plantation. […]
The effect of the compound of this invention as an anticancer agent is clear.

| Compound | tumor-inhibitory effect, single drug [1] | Tumor volume ratio [2] |
| --- | --- | --- |
| O=c1[nH]cc(F)c(=O)[nH]1 [5-FU, 5-fluorouracil, reference compound] | tumor-inhibitory effect | – |
| O=P1(N(CCCl)CCCl)NCCCO1 (centres unmarked) [Cyclophosphamide, reference compound] | – | 1.52 ± 0.06 |

Reference: patent EP0563386A1, “ANTICANCER COMPOSITION AND COMPOUND” (NIPPON SHINYAKU COMPANY, LIMITED, priority 1990, dated 1992)
